Results from patent US9617283B2, “Bicyclic heterocycle compounds and their uses in therapy” (ASTEX THERAPEUTICS LIMITED, priority 2012, dated 2017).
Where a name gives a salt, the structure may show the parent alone. Read-outs that look alike come from different tables or passages of the source.

Tests used:
[1] = molecular target: T1, BIR3 domain of human cIAP-1 (residues 267-363) (Homo sapiens, UniProt Q13490); assay: cIAP-1 in vitro competitive displacement binding assay (fluorescence polarization)
T1 construct: human cIAP-1 (residues 267-363) fused to a GST-tag; GST-tag (cleaved yes); made in house; host or cells: Escherichia coli
T1 sequence (Q13490 267-363): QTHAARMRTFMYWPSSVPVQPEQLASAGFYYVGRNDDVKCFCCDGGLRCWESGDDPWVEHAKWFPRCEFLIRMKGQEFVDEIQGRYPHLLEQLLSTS

[2] = molecular target: T2, BIR3 domain of human XIAP (residues 252-350) (Homo sapiens, UniProt P98170); assay: XIAP in vitro competitive displacement binding assay (fluorescence polarization); settings: percent inhibition (PI) at 0.04 μM; for Xiap IC50 or PI μM: 60 min, dihydrochloride, 0.04 µM; for inhibition at 0.04 µM: 1 h, read-out: Xiap IC50 or PI μM
T2 construct: BIR3 domain of human XIAP (residues 252-350); His-tag (cleaved yes); made in house; host or cells: Escherichia coli
T2 sequence (P98170 252-350): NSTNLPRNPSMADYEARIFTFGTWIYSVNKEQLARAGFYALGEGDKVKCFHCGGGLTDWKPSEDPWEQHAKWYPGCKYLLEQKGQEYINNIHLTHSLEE

[3] = test system: EVSA-T (human breast carcinoma); assay: Anti-proliferative activity, Alamar Blue assay, EVSA-T; format: cell-based
[4] = EVSA-T cell line, 72 hours, Alamar Blue, dihydrochloride, read-out: EVSA-T prolif
[5] = Homo sapiens, EVSA-T, read-out: EC50 in EVSA-T cell line assays
[6] = Homo sapiens, EVSA-T, 72 h, EVSA-T cell line, 72 hours, Alamar Blue, read-out: EVSA-T prolif

SMILES	inhibition at 0.04 µM ([1]; 3 h, percent inhibition (PI) at 0.04 μM, read-out: cIAP1 IC50 or PI μM) [%]	Xiap IC50 or PI μM [2] [%@0.04]	EC50 [3, 4] [nM]	cIAP1 IC50 or PI μM ([1]; percent inhibition (PI) at […], 180 min, dihydrochloride, […]) [%@0.012]	EC50 [3, 5] [nM]	inhibition at 0.04 µM [2] [%]	EC50 [3, 6] [nM]
CCCC(O)c1cnc2c(c1)N(C(=O)CN1C[C@@H](C)NC[C@@H]1CN1Cc3ccccc3C1=O)CC2(C)C (single isomer, unassigned) [Example 91, dihydrochloride]	53	40	330	–	–	–	–
CCC1CN(C[C@H]2CN[C@H](C)CN2CC(=O)N2CC(C)(C)c3ncc([C@@H](O)c4ccc(F)cc4)cc32)C(=O)CO1 (single isomer, unassigned) [Example 111, (R or S)-6-ethyl-4-{[(2R,5R)-1-(2-{6-[(S)-(4-Fluorophenyl)(hydroxy)methyl]-3,3-dimethyl-1H,2H,3H-pyrrolo[3,2-b]pyridin-1-yl}-2-oxoethyl)-5-methylpiperazin-2-yl]methyl}morpholin-3-one dihydrochloride]	–	68	77	62	< 1000	–	–
C[C@@H]1CN(CC(=O)N2CC(C)(C)c3ncc(Cc4ccc(F)cc4F)cc32)[C@@H](CN2Cc3ccc(C#N)cc3C2=O)CN1 [Example 112, 2-{[(2R,5R)-1-(2-{6-[(2,4-Difluorophenyl)methyl]-3,3-dimethyl-1H,2H,3H-pyrrolo[3,2-b]pyridin-1-yl}-2-oxoethyl)-5-methylpiperazin-2-yl]methyl}-3-oxo-2,3-dihydro-1H-isoindole-5-carbonitrile dihydrochloride]	–	–	–	–	< 1000	85	2.7
C[C@@H]1CN(CC(=O)N2CC(C)(C)c3nnc(Cc4ccc(F)cc4F)cc32)[C@@H](CN2Cc3cccc(F)c3C2=O)CN1 [Example 113, 2-{[(2R,5R)-1-(2-{3-[(2,4-Difluorophenyl)methyl]-7,7-dimethyl-5H,6H,7H-pyrrolo[3,2-c]pyridazin-5-yl}-2-oxoethyl)-5-methylpiperazin-2-yl]methyl}-7-fluoro-2,3-dihydro-1H-issoindol-1-one dihydrochloride]	–	–	–	–	< 1000	69	0.62
C[C@@H]1CN(CC(=O)N2CC(C)(C)c3ncc(Cc4ccc(F)cc4F)cc32)[C@@H](CN2Cc3c(O)cccc3C2=O)CN1 [Example 118, 2-{[(2R,5R)-1-(2-{6-[(2,4-Difluorophenyl)methyl]-3,3-dimethyl-1H,2H,3H-pyrrolo[3,2-b]pyridin-1-yl}-2-oxoethyl)-5-methylpiperazin-2-yl]methyl}-4-hydroxy-2,3-dihydro-1H-isoindol-1-one dihydrochloride]	–	–	–	–	< 1000	72	6.4
